Laboratory results published in publication PMC10302582, “Unveiling the Potential of BenzylethyleneAryl–Urea Scaffolds for the Design of New Onco Immunomodulating Agents” (Pharmaceuticals, 2023).

Columns and labels:
[1] = system: HEK-293 (human embryonic kidney cells); assay: MTT cell proliferation assay, HEK-293; format: cell-based; settings: HEK293, 48 h treatment
Method: The action on cell proliferation caused by our developed compounds was studied using an MTT assay using the human tumor cell lines of HT-29 (colon adenocarcinoma) and A-549 (pulmonary adenocarcinoma), as well as toward the non-tumor cell line HEK-293 (human embryonic kidney cells), Jurkat T-cells and human microvessel endothelial cells (HMEC-1).
In general, 5 × 10^3 (HT-29, A549, HMEC-1, Jurkat and HEK-293) cells per well were seeded in 96-well plates with 1:1 dilutions of the compounds in a volume of 100 μL of the cell media. The 3-(4,5-dimethylthiazol-2-yl)-2,5-diphenyltetrazolium bromide (MTT; Sigma Chemical Co.) dye exclusion assay was performed, and after 48 h (37 °C, 5% CO2 in a humid atmosphere), 10 μL of MTT (5 mg/mL in phosphate-buffered saline, PBS) was added to each well and incubated for 3 h at 37 °C. After the supernatant was discarded, we solved the formazan crystal in 100 µL of DMSO. The absorbance was then registered at 550 nm using a plate lector. For all concentrations of any compound, cell viability was expressed as the percentage of the ratio between the mean absorbance of the treated cells and the mean absorbance of the untreated cells. Three to five experiments were performed to establish the IC50 values (i.e., concentration half inhibiting cell proliferation, we used GraphPad Prism 7 software).

[2] = system: HT-29 cells co-cultured with THP-1; assay: Cancer cell proliferation in co-cultures of HT-29 and THP-1; format: cell-based, human; settings: 100 μM
Method: To establish the potential of the selected compounds as immunomodulator agents, we studied the effect of the selected compounds on HT-29 cell proliferation when co-cultured with human monocytic leukemia cell line THP-1. For the study, we used different proportions of cancer and immune cells. Standard protocol proportions were 1:5 cancer/immune cells. We include a test using a 2:1 proportion of HT-29 cells to THP-1 cells. The tests were performed for two periods of time: 24 and 48 h, using 100 μM doses of the selected compounds and BMS-8 as the reference compound.
(§1) To determine the action of the compounds on cancer cell proliferation in co-culture with immune cells, 10^5 or 2 × 10^5 of the HT-29 cells line were seeded in each well of 12-well plates and left at 37 °C for 24 h. Then, the cancer cells were treated with IFN-γ (10 ng/mL; human, Invitrogen®, Waltham, MA, USA) containing 5 × 10^5 or 10^5, respectively, of THP-1 cells per well and the corresponding compound at 100 μM or DMSO for the positive control. After 24 h/48 h of incubation, the supernatants were collected to establish the alive THP-1 cells using FSC and SCC flow cytometry. In addition, cancer cells were collected with trypsin, fixed with 4% in PBS paraformaldehyde and counted using flow cytometry.

[3] = system: THP-1 cells co-cultured with HT-29; assay: Immune cell proliferation in co-cultures of HT-29/THP-1; format: cell-based, human; settings: 100 μM
Method: We also determined the effect of the selected compounds on the human monocyte cells THP-1 in the described co-cultures (see Table 6).
as §1

SMILES | IC50 [1] | HT-29 cancer cell proliferation in co-culture ([2]; 1:5 HT-29/THP-1, 24 h) | HT-29 cancer cell proliferation in co-culture ([2]; 1:5 HT-29/THP-1, 48 h) | HT-29 cancer cell proliferation in co-culture ([2]; 2:1 HT-29/THP-1, 24 h) | HT-29 cancer cell proliferation in co-culture ([2]; 2:1 HT-29/THP-1, 48 h) | THP-1 cell proliferation in co-culture ([3]; 1:5 HT-29/THP-1, 24 h) | THP-1 cell proliferation in co-culture ([3]; 1:5 HT-29/THP-1, 48 h) | THP-1 cell proliferation in co-culture ([3]; 2:1 HT-29/THP-1, 24 h) | THP-1 cell proliferation in co-culture ([3]; 2:1 HT-29/THP-1, 48 h)
COc1ccc(CCCc2cccc(NC(=O)Nc3ccc(OC)cc3)c2)cc1 [C.12] | > 100 µM | 84 ± 2 | 67 ± 11 | 93 ± 8 | 89 ± 10 | 95 ± 18 | 90 ± 6 | 94 ± 5 | 90 ± 2
COc1ccc(CCCc2cccc(NC(=O)Nc3ccc(F)cc3)c2)cc1 [C.3] | > 100 µM | 78 ± 8 | 64 ± 3 | 67 ± 9 | 57 ± 5 | 87 ± 8 | 78 ± 5 | 113 ± 26 | 91 ± 18
COc1ccc(CCCc2cccc(NC(=O)Nc3ccccc3OC)c2)cc1 [C.14] | > 100 µM | 64 ± 14 | 68 ± 8 | 82 ± 7 | 58 ± 5 | 99 ± 10 | 91 ± 6 | 110 ± 7 | 86 ± 3
COc1ccc(CCCc2cccc(NC(=O)Oc3ccccc3)c2)cc1 [C.1] | > 100 µM | 48 ± 8 | 52 ± 3 | 70 ± 8 | 66 ± 8 | 104 ± 8 | 97 ± 8 | 124 ± 6 | 113 ± 7
